Key:
[1] = biological target: EP4 subtype of the human PGE2 receptor (Homo sapiens, UniProt P35408); test: cAMP antagonism test on the human EP4 receptor (HTRF cAMP detection); format: cell-based; conditions: selectivity towards hEP4, IC50 measured by cAMP antagonism test
How it was run: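 Competitive HTRF cAMP read-out (cAMP-d2 vs Eu-cryptate anti-cAMP antibody, 665/620 nm ratio) on lysed human EP4 cells. Compound (0.8 nM–16.5 μM) applied 20 min at RT before 60 min PGE2 challenge (3× solution 0.3 nM, IBMX present); 20 min lysis precedes reading.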

[2] = test system: female cynomolgus monkeys (Macaca Fascicularis); test: In-vivo action on fertility in non-human primates (mating study); conditions: 6 months, 10 mg/kg (Example 17 once daily, Example 56 twice daily)
Method: 4.4 In-Vivo Action on Fertility in Non-Human Primates (Cynomolgus):
In order to study the effect of substances on fertility, mating studies can be performed in monkeys (Jensen et al. Contraception 81 (2010) 165-171). For this, the test substances are administered to female cynomolgus monkeys (Macaca Fascicularis) which are being kept in groups, then the animals are mated with a male animal. Matings are checked for by sperm detection in daily vaginal smears. Pregnancies resulting therefrom are identified by hormone determinations and ultrasound examinations. Through the changes in the serum oestradiol concentrations during the cycle, (rise before the midcycle LH peak), the fertile phase within a cycle of the individual animals can be determined Matings in this fertile period are described as “timed matings” (matings in the fertile phase). Apart from the absolute number of pregnancies occurring, the effect on the fertility can also be expressed as pregnancies per “timed matings”.
To test the action of EP2 receptor antagonists on fertility in monkeys, Examples 17 and 56 according to the invention were administered over 6 months, dissolved in 0.5 ml castor oil. Example 17 was administered once daily at a dosage of 10 mg/kg (n=10 animals), while Example 56 was administered twice daily at a dosage of 10 mg/kg (n=9 animals). Only the vehicle was administered to a control group (n=10 animals). In the first month of the treatment, no male animal was placed with the female animals. After this, female and male animals were kept together over 5 months, with detection of pregnancies and cycle monitoring.

human PGD receptor = biological target: T1, human PGD receptor (Homo sapiens, UniProt Q13258); test: cAMP antagonism test on the human prostaglandin D receptor (HTRF cAMP detection); format: cell-based; conditions: selectivity towards hDP, IC50 measured by cAMP antagonism test
T1 sequence (Q13258 1-359): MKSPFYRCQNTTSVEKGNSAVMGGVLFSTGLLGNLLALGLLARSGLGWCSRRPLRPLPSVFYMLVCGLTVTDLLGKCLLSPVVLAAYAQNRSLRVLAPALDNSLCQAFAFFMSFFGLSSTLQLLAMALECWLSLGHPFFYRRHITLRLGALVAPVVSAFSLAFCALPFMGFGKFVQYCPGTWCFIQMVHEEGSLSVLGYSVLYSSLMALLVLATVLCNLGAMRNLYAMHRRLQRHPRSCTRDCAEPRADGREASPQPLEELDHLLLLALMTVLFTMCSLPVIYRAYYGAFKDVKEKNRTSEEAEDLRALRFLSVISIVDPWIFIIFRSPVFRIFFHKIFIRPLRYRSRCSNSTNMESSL
How it was run: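 HTRF competition read-out (665/620 nm ratio ×10000), where higher FRET means less cAMP, i.e. antagonism. Compounds (0.8 nM–16.5 μM) were preincubated 20 min at RT with cells and cAMP-d2, PGD2 (3× solution, 6 nM) in IBMX-containing PBS added for 30 min at RT, then cells lysed 20 min.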

[3] = biological target: EP2 subtype of the human PGE2 receptor (Homo sapiens, UniProt P43116); test: cAMP antagonism test on the human EP2 receptor (HTRF cAMP detection); format: cell-based; conditions: hEP2 receptor, read-out: Antagonism hEP2 IC50
How it was run: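 Read-out is a competitive HTRF for cAMP: lysate cAMP displaces cAMP-d2 from Eu cryptate-labelled antibody, and antagonism raises the 665/620 nm ratio. Compound (0.8 nM–16.5 μM) added to EP2 cells 20 min at RT before 60 min PGE2 challenge (3× stock 1.5 nM) with IBMX, followed by 20 min lysis.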

cumulus-oocyte complexes = test: Cumulus expansion test in vitro; format: cell-based, mice (strain: B6D2F1); conditions: Mus musculus, 0.3 μM PGE2 for stimulation; for inhibition at 1 µM: read-out: % reduction at 1 μM (reduction in the cumulus expansion); for inhibition at 0.5 µM: read-out: % reduction at 0.5 μm (reduction in the cumulus expansion)
Method: 4.2. Cumulus Expansions Test In Vitro In immature female mice (strain: B6D2F1 from Charles River), at an age of 14-18 days, the folliculogenesis was induced by a single administration (intraperitoneal) of 10 IU of PMSG (pregnant mare serum gonadotropin; Sigma G-4877, Lot 68H0909). 47-50 hours after the injection, the ovaries were removed and the cumulus-oocyte complexes removed. At this stage, the cumulus complex is not yet expanded. The cumulus-oocyte complexes were now incubated for 20-24 hours with prostaglandin E2 (PGE) (0.3 μM), vehicle control (ethanol) or test substances. Medium: alpha-MEM medium with 0.1 mM IBMX, pyruvate (0.23 mM), glutamine (2 mM), pen/strep 100 IU/ml pen. and 100 μg/ml strep.), HSA (8 mg/ml) and foetal bovine serum (FBS, 10%). The cumulus expansion was then established through the subdivision into four stages (after Vanderhyden et al. Dev Biol. 1990 August; 140(2):307-317).

Sequence of EP2 subtype of the human PGE2 receptor (P43116 whole entry): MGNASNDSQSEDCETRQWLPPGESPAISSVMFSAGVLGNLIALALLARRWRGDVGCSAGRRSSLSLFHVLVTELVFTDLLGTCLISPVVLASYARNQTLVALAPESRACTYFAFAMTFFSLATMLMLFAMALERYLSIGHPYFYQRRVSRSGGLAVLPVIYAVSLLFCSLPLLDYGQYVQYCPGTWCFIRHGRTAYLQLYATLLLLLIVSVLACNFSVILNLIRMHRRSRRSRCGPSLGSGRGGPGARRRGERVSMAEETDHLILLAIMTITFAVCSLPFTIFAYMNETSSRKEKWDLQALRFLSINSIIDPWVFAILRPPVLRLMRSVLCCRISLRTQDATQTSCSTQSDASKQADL
Sequence of EP4 subtype of the human PGE2 receptor (P35408 whole entry): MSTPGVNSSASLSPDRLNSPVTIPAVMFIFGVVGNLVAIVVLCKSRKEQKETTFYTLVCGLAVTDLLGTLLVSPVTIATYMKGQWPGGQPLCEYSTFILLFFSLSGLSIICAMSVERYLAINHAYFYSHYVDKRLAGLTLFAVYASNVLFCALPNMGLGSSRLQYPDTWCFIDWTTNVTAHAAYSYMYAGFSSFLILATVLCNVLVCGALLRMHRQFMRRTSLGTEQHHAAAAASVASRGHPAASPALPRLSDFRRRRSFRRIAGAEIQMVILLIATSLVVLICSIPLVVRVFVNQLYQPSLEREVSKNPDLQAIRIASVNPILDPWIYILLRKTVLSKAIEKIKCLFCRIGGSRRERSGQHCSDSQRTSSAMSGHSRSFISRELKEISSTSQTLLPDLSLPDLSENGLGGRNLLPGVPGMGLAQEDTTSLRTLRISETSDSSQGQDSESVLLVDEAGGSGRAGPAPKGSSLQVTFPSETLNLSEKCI

Selectivity hEP2/hEP4 [1]	Selectivity hEP2/hDP (human PGD receptor)	IC50 [3] [nM]	SMILES	% Pregnancies/"timed mating" [2] [%]	Pregnancies [2]	inhibition at 1 µM (cumulus-oocyte complexes) [%]	inhibition at 0.5 µM (cumulus-oocyte complexes) [%]
xxx (xxx > 100)	xxx (xxx > 100)	13.1	COCCNC(=O)c1ccc2nn(CC3CCN(C(=O)c4ccc(Cl)cc4)CC3)cc2c1C [Example 56, 2-{[1-(4-chlorobenzoyl)piperidin-4-yl]methyl}-N-(2-methoxyethyl)-4-methyl-2H-indazol-5-carboxamide]	12	2	–	–
xxx (xxx > 100)	xxx (xxx > 100)	13.9	Cc1c(C(=O)NCC(F)(F)F)ccc2nn(CC3CCN(C(=O)c4ccc(Oc5ccc(C(F)(F)F)nc5)cc4)CC3)cc12 [Example 303, 4-methyl-N-(2,2,2-trifluoroethyl)-2-{[1-(4-{[6-(trifluoromethyl)pyridin-3-yl]-oxy}benzoyl)piperidin-4-yl]methyl}-2H-indazol-5-carboxamide]	–	–	47	38
xxx (xxx > 100)	xxx (xxx > 100)	5.94	Cc1c(C(=O)NCC(F)(F)F)ccc2nn(CC3CCN(C(=O)c4ccc(Oc5ccc(C(F)(F)F)cc5)cc4)CC3)cc12 [Example 291, 4-methyl-N-(2,2,2-trifluoroethyl)-2-[(1-{4-[4-(trifluoromethyl)phenoxy]-benzoyl}piperidin-4-yl)methyl]-2H-indazol-5-carboxamide]	–	–	73	76
